Measurements as given in patent US20260325533A1, “CDK INHIBITOR COMPOUNDS” (ALEKSIA THERAPEUTICS, INC., priority 2023, published 2026).
Read-outs that look alike come from different tables or passages of the source.

How the values were obtained:
Type in all cases: biochemical
CDK6/CCND1 = CDK6/CCND1 (Homo sapiens, UniProt Q00534); assay: CDK6 homogeneous time-resolved fluorescence (HTRF) kinase assay; conditions: CDK6/CCND
In short: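 1 nM enzyme, 1 mM ATP, 50 nM ULight-4E-BP1 (Thr37/46) peptide, 1% DMSO; 20 min compound preincubation, 60 min reaction, 23 °C. EDTA stop, 2 nM Eu-anti-phospho-4E-BP1 antibody 60 min. TR-FRET 665 nm (or 665/615 ratio); IC50 from 11-point half-log titration, top 10 μM.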

CDK2/CCNE1 = CDK2/CCNE1 (Homo sapiens, UniProt P24941); assay: CDK2 homogeneous time-resolved fluorescence (HTRF) kinase assay; conditions: CDK2/CCNE
In short: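 CDK2/CCNE1 (3 nM) preincubated 20 min at 23 °C with compound, then reacted 60 min at 23 °C with 1 mM ATP and 50 nM ULight-4E-BP1 (Thr37/46) peptide. Stopped with EDTA, phospho-peptide detected by Eu-anti-phospho antibody (665 nm or 665/615 ratio). IC50 from 11-point half-log titrations typically starting at 10 μM.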

CDK1/CCNB1 = CDK1/CCNB1 (Homo sapiens, UniProt P06493); assay: CDK1 homogeneous time-resolved fluorescence (HTRF) kinase assay; conditions: CDK1/CCNB
CDK1/CCNB1, sequence (P06493 whole entry): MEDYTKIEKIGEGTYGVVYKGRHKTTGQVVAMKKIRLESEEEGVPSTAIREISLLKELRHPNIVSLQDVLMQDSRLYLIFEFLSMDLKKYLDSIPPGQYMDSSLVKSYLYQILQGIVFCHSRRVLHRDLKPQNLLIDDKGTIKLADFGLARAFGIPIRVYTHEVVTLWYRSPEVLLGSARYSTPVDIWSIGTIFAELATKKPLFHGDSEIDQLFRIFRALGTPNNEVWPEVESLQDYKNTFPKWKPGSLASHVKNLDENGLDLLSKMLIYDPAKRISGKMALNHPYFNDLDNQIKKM
CDK1/CCNB1, sequence (P14635 whole entry partner): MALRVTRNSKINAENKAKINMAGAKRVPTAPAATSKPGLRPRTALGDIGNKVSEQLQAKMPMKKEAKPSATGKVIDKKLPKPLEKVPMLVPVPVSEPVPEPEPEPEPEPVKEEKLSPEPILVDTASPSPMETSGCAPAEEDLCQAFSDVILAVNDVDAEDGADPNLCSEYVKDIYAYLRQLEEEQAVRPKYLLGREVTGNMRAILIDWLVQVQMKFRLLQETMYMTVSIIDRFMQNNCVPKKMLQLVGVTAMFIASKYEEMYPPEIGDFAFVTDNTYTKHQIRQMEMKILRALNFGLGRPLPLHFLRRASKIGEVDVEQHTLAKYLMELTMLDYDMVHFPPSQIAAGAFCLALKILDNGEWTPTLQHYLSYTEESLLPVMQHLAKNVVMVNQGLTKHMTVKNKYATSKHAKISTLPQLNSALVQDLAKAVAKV
In short: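 CDK1/CCNB1 0.5 nM + cpd, 20 min 23 °C; add 1 mM ATP, 50 nM ULight-4E-BP1 peptide, 60 min 23 °C; stop 10 mM EDTA; 2 nM Eu-Ab, 60 min; HTRF 665 nm. 11-pt half-log, top 10 μM typical; IC50.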

CDK4/CCND3 = CDK4/CCND3 (Homo sapiens, UniProt P11802); assay: CDK4 homogeneous time-resolved fluorescence (HTRF) kinase assay; conditions: CDK4/CCND
CDK4/CCND3, sequence (P11802 whole entry): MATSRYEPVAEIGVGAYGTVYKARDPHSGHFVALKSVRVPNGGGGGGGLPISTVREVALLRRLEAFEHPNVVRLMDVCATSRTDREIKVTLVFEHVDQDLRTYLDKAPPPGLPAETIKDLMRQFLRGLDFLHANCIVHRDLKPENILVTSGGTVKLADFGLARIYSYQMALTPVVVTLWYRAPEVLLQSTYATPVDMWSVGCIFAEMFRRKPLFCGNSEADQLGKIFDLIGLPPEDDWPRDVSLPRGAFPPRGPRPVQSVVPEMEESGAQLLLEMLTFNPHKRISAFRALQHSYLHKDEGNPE
CDK4/CCND3, sequence (P30281 whole entry partner): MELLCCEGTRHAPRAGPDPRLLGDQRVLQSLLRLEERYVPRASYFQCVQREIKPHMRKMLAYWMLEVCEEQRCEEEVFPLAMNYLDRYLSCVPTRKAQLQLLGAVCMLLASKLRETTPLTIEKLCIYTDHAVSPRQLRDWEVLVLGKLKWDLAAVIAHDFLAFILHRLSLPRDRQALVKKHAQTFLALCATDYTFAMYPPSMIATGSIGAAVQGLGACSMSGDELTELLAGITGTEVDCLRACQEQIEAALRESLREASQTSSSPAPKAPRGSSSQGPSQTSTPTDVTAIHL
In short: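 Compounds were preincubated with 1.5 nM CDK4/CCND3 for 20 min at 23 °C in HEPES buffer (pH not given), then reacted 60 min with 1 mM ATP and 50 nM ULight-4E-BP1 (Thr37/46) peptide. EDTA stop, Eu-anti-phospho-4E-BP1 detection; 665/615 nm ratio; IC50 from 11-point half-log titrations from 10 μM.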

[1] = >250 nM marked x, read-out: CDK6/CCND IC50 >250 nM
[2] = <25 nM, read-out: CDK2/CCNE IC50 <25 nM
[3] = >250 nM marked x, read-out: CDK1/CCNB IC50 >250 nM
[4] = 25-250 nM marked x, read-out: CDK4/CCND IC50 25-250 nM
[5] = 25-250 nM marked x, read-out: CDK6/CCND IC50 25-250 nM
[6] = 25-250 nM marked x, read-out: CDK1/CCNB IC50 25-250 nM
[7] = x = IC50 25-250 nM, read-out: CDK6/CCND IC50 (25-250 nM)
[8] = x = IC50 <25 nM, read-out: CDK2/CCNE IC50 (<25 nM)
[9] = x = IC50 25-250 nM, read-out: CDK1/CCNB IC50 (25-250 nM)
[10] = x = IC50 25-250 nM, read-out: CDK4/CCND IC50 (25-250 nM)
[11] = x = IC50 >250 nM, read-out: CDK6/CCND IC50 (>250 nM column)
[12] = x = IC50 >250 nM, read-out: CDK4/CCND IC50 (>250 nM column)
[13] = x = IC50 >250 nM, read-out: CDK1/CCNB IC50 (>250 nM column)

CDK6/CCND1, sequence (Q00534 whole entry): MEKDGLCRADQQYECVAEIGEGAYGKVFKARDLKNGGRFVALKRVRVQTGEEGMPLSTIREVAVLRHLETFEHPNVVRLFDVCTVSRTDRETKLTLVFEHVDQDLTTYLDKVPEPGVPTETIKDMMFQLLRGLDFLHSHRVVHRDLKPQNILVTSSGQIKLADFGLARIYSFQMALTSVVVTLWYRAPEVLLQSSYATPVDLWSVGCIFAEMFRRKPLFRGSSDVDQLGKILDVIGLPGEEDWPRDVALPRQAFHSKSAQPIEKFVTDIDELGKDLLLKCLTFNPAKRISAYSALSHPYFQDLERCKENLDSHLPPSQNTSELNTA
CDK6/CCND1, sequence (P24385 whole entry partner): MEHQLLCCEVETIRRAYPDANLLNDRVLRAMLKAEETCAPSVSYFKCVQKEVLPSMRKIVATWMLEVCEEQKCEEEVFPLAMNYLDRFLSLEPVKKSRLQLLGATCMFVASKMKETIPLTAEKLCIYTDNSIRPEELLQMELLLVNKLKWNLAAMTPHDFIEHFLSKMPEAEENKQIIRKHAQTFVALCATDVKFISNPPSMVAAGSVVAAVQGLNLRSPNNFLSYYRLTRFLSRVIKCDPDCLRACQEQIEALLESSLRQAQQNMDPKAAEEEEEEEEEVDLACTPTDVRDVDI

SMILES	IC50 (CDK6/CCND1; [1]) [nM]	IC50 (CDK2/CCNE1; [2]) [nM]	IC50 (CDK4/CCND3; [4]) [nM]	IC50 (CDK2/CCNE1; [8]) [nM]	IC50 (CDK4/CCND3; [12]) [nM]	further results
CC(C)S(=N)(=O)c1ccc(Nc2cc3c(C#Cc4cc5c(cc4N)C(C)(C)C(=O)N5)nccc3cn2)cc1 (single isomer, unassigned) [Example 270, 5-amino-3,3-dimethyl-6-((7-((4-(propan-2-ylsulfonimidoyl)phenyl)amino)-2,6-naphthyridin-1-yl)ethynyl)indolin-2-one]	> 250	< 25	25 to 250	–	–	IC50 (CDK1/CCNB1; [3]): > 250 nM
CC(C)S(=N)(=O)c1ccc(Nc2cc3c(C#Cc4ccc5c(c4)NC(=O)C5(C)CCO)nccc3cn2)cc1 (single isomer, unassigned) [Example 271, 3-(2-hydroxyethyl)-3-methyl-6-((7-((4-(propan-2-ylsulfonimidoyl)phenyl)amino)-2,6-naphthyridin-1-yl)ethynyl)indolin-2-one]	–	< 25	25 to 250	–	–	IC50 (CDK6/CCND1; [5]): 25 to 250 nM; IC50 (CDK1/CCNB1; [6]): 25 to 250 nM
N=S(=O)(c1ccc(Nc2cc3c(C#Cc4ccc5c(c4)NC(=O)C54CC4)nccc3cn2)c(F)c1)C1COC1 (single isomer, unassigned) [Example 275, 6′-((7-((2-fluoro-4-(oxetane-3-sulfonimidoyl)phenyl)amino)-2,6-naphthyridin-1-yl)ethynyl)spiro[cyclopropane-1,3′-indolin]-2′-one]	> 250	< 25	25 to 250	–	–	IC50 (CDK1/CCNB1; [3]): > 250 nM
CC(C)S(=N)(=O)c1ccc(Nc2cc3c(C#Cc4ccc5c(c4)NC(=O)C5(C)O)nccc3cn2)cc1 (single isomer, unassigned) [Example 279, 3-hydroxy-3-methyl-6-((7-((4-(propan-2-ylsulfonimidoyl)phenyl)amino)-2,6-naphthyridin-1-yl)ethynyl)indolin-2-one]	–	< 25	25 to 250	–	–	IC50 (CDK6/CCND1; [5]): 25 to 250 nM; IC50 (CDK1/CCNB1; [6]): 25 to 250 nM
COc1cc(S(=N)(=O)C2CC2)ccc1Nc1cc2c(C#Cc3ccc4c(c3)NC(=O)C43CCC3)nccc2cn1 (single isomer, unassigned) [Example 296, 6′-((7-((4-(cyclopropanesulfonimidoyl)-2-methoxyphenyl)amino)-2,6-naphthyridin-1-yl)ethynyl)spiro[cyclobutane-1,3′-indolin]-2′-one]	> 250	< 25	–	–	–	IC50 (CDK1/CCNB1; [3]): > 250 nM; IC50 (CDK4/CCND3; >250 nM marked x, read-out: CDK4/CCND IC50 >250 nM): > 250 nM
Cc1cc2c(cc1C#Cc1nccc3cnc(Nc4ccc(S(=N)(=O)C(C)C)cc4)cc13)NC(=O)C2(C)C (single isomer, unassigned) [Example 315, 3,3,5-trimethyl-6-((7-((4-(propan-2-ylsulfonimidoyl)phenyl)amino)-2,6-naphthyridin-1-yl)ethynyl)indolin-2-one]	> 250	< 25	25 to 250	–	–	IC50 (CDK1/CCNB1; [3]): > 250 nM
COCC1(COC)C(=O)Nc2cc(C#Cc3nccc4cnc(Nc5ccc(S(=N)(=O)C(C)C)cc5)cc34)ccc21 (single isomer, unassigned) [Example 321, 3,3-bis(methoxymethyl)-6-((7-((4-(propan-2-ylsulfonimidoyl)phenyl)amino)-2,6-naphthyridin-1-yl)ethynyl)indolin-2-one]	> 250	< 25	25 to 250	–	–	IC50 (CDK1/CCNB1; [6]): 25 to 250 nM
CC(C)S(=N)(=O)c1ccc(Nc2cc3c(C#Cc4ccc5c(c4)NC(=O)C5(C)CO)nccc3cn2)cc1 (single isomer, unassigned) [Example 328, 3-(hydroxymethyl)-3-methyl-6-((7-((4-(propan-2-ylsulfonimidoyl)phenyl)amino)-2,6-naphthyridin-1-yl)ethynyl)indolin-2-one]	> 250	< 25	25 to 250	–	–	IC50 (CDK1/CCNB1; [6]): 25 to 250 nM
CC1(O)C(=O)Nc2cc(C#Cc3nccc4cnc(Nc5ccc(S(C)(=O)=O)cc5)cc34)ccc21 (single isomer, unassigned) [Example 347, 3-hydroxy-3-methyl-6-((7-((4-(methylsulfonyl)phenyl)amino)-2,6-naphthyridin-1-yl)ethynyl)indolin-2-one]	–	–	–	< 25	–	IC50 (CDK6/CCND1; [7]): 25 to 250 nM; IC50 (CDK1/CCNB1; [9]): 25 to 250 nM; IC50 (CDK4/CCND3; [10]): 25 to 250 nM
CC1(CO)C(=O)Nc2cc(C#Cc3nccc4cnc(Nc5ccc(S(C)(=O)=O)cc5)cc34)ccc21 (single isomer, unassigned) [Example 372, 3-(hydroxymethyl)-3-methyl-6-((7-((4-(methylsulfonyl)phenyl)amino)-2,6-naphthyridin-1-yl)ethynyl)indolin-2-one]	–	–	–	< 25	–	IC50 (CDK6/CCND1; [7]): 25 to 250 nM; IC50 (CDK1/CCNB1; [9]): 25 to 250 nM; IC50 (CDK4/CCND3; [10]): 25 to 250 nM
CCC1(C)C(=O)Nc2cc(C#Cc3nccc4cnc(Nc5ccc(S(C)(=O)=O)cc5)cc34)ccc21 (single isomer, unassigned) [Example 388, 3-ethyl-3-methyl-6-((7-((4-(methylsulfonyl)phenyl)amino)-2,6-naphthyridin-1-yl)ethynyl)indolin-2-one]	–	–	–	< 25	> 250	IC50 (CDK6/CCND1; [11]): > 250 nM; IC50 (CDK1/CCNB1; [9]): 25 to 250 nM
CCS(=N)(=O)c1ccc(Nc2cc3c(C#Cc4ccc(=O)[nH]n4)nccc3cn2)cc1 (single isomer, unassigned) [Example 403, 6-((7-((4-(ethylsulfonimidoyl)phenyl)amino)-2,6-naphthyridin-1-yl)ethynyl)pyridazin-3(2H)-one]	–	–	–	< 25	> 250	IC50 (CDK6/CCND1; [11]): > 250 nM; IC50 (CDK1/CCNB1; [13]): > 250 nM
CS(=N)(=O)c1ccc(Nc2cc3c(C#Cc4ccc5oc(=O)[nH]c5c4)nccc3cn2)cc1 (single isomer, unassigned) [Example 483, 5-((7-((4-(S-methylsulfonimidoyl)phenyl)amino)-2,6-naphthyridin-1-yl)ethynyl)benzo[d]oxazol-2(3H)-one]	–	–	–	< 25	–	IC50 (CDK6/CCND1; [7]): 25 to 250 nM; IC50 (CDK1/CCNB1; [9]): 25 to 250 nM; IC50 (CDK4/CCND3; [10]): 25 to 250 nM
CS(=N)(=O)c1ccc(Nc2cc3c(C#Cc4ccc(C#N)cc4)nccc3cn2)cc1 (single isomer, unassigned) [Example 511, 4-((7-((4-(S-methylsulfonimidoyl)phenyl)amino)-2,6-naphthyridin-1-yl)ethynyl)benzonitrile]	–	–	–	–	> 250	IC50 (CDK6/CCND1; [11]): > 250 nM; IC50 (CDK2/CCNE1; x = IC50 25-250 nM, read-out: CDK2/CCNE IC50 (25-250 nM)): 25 to 250 nM; IC50 (CDK1/CCNB1; [13]): > 250 nM
Cc1c(-c2nccc3cnc(Nc4ccc(S(C)(=N)=O)cc4)cc23)ccc2nn(C)cc12 (single isomer, unassigned) [Example 545, (4-((5-(2,4-dimethyl-2H-indazol-5-yl)-2,6-naphthyridin-3-yl)amino)phenyl)(imino)(methyl)-λ^6-sulfanone]	–	–	–	< 25	> 250	IC50 (CDK6/CCND1; [7]): 25 to 250 nM; IC50 (CDK1/CCNB1; [13]): > 250 nM
CC(C)(O)Cn1cc2ccc(C#Cc3nccc4cnc(Nc5ccc(S(C)(=O)=O)cc5)cc34)cc2n1 (single isomer, unassigned) [Example 577, 2-Methyl-1-(6-((7-((4-(methylsulfonyl)phenyl)amino)-2,6-naphthyridin-1-yl)ethynyl)-2H-indazol-2-yl)propan-2-ol]	–	–	–	–	> 250	IC50 (CDK6/CCND1; [11]): > 250 nM; IC50 (CDK2/CCNE1; x = IC50 >250 nM, read-out: CDK2/CCNE IC50 (>250 nM column)): > 250 nM; IC50 (CDK1/CCNB1; [13]): > 250 nM
CS(=O)(=O)c1ccc(Nc2cc3c(-c4ccc5c(cnn5CC(O)(C(F)(F)F)C(F)(F)F)c4Cl)nccc3cn2)cc1 (single isomer, unassigned) [Example 587, 2-((4-chloro-5-(7-((4-(methylsulfonyl)phenyl)amino)-2,6-naphthyridin-1-yl)-1H-indazol-1-yl)methyl)-1,1,1,3,3,3-hexafluoropropan-2-ol]	–	–	–	< 25	> 250	IC50 (CDK6/CCND1; [11]): > 250 nM; IC50 (CDK1/CCNB1; [13]): > 250 nM
